The source of these data is patent US20050236004A1, “Healthcare model of wellness” (priority 2004, published 2005).

For series [1] the following is noted: in vivo.
For series [2] the following is noted: cited from earlier work.
Series [3] in a line: first principles model of blood serum level of a drug over time.
Source text: The relevant internal variables for the modal of FIG. 18 are: • Ingested amount=I • Blood amount=B
The relevant parameters for the model are: • Digestion rate=κ • Absorption rates=α,β • Conversion rate=γ • Excretion rate=ω
The model equations are then: dI/dt=−αI−κ dB/dt−−ωB−γ+αl+κ−βD dD/dt=κ−βD In most cases, these parameters are not available directly, but most infer them from values such as the excretion half-life T1/2 and the time of maximum blood levels, Tmax. For most medications, the digestion and conversion rates are small or zero, and, as such, it is only necessary to estimate the absorption and excretion rates α and ω. […] The system of equations is then given by: dI/dt=αl dB/dt=−ωB+αl which can be solved exactly for the case of a single ingested amount I0 by converting to matrix form: dV/dt=MV where V the column vector [I,B] and M is the coefficient matrix [−α,0][α,−ω]. This matrix equation has the solution: V=exp(Mt)V0 Where exp(Mt) is the exponentiation of M as a matrix taylor series, and V0 is the initial vector. Inserting M=PDP^−1 where D is a diagonal matrix in the taylor series gives: exp(Mt)=Pexp(Dt)P^−1 The eigenvalues are easily given by setting det(D−λI)=0 giving (−α−λ)(−ω−λ)=0, and so λ=−α,−ω D=[−α,0][0,−ω] Solving for the eigenvectors of comprising P gives the following relationship: P=[ω−α)/α,0][1,1] […]

SMILES strings stand for the structures.

Broadly, the Cmax is the peak of the concentration-time curve. The Tmax is the time from dosing to the highest level.

For `Cc1onc(-c2ccccc2)c1-c1ccc(S(N)(=O)=O)cc1` [BEXTRA, Valdecoxib], the Cmax/AUC in series [1] turned out to be 0.1089. For the same molecule, the Cmin in series [2] (at 14 day equilibrium) is 21.9 ng/mL. Besides, the “Area_Under_Curve(24 hr)” value in series [2] (given value, 24 hr) was 1479.0 ng·h/mL. In series [2] (given value), the maximum concentration (Cmax) is recorded as 161.1 ng/mL, the “Elimination Half-Life” value is 8.11 h and the Tmax was 2.25 h. In addition, the “absorption coefficient α” value in series [3] (computed from Tmax by iterative formula) was 1.293 h⁻¹. For the same molecule, the “excretion coefficient ω” value in series [3] (ln(2)/half-life) was 0.08547 h⁻¹.
